Laboratory results from patent publication US8673966B2, “ALDH-2 inhibitors in the treatment of addiction” (Gilead Sciences, Inc., priority 2011, dated 2014).
pIC50: −log10 of the molar value. Entries after “also recorded” stand apart in the source; their conditions may differ.

Key:
[1] = target: human mitochondrial aldehyde dehydrogenase (ALDH-2) (Homo sapiens (Human), UniProt P05091); details: U.S. Pat. Nos. 5,624,910 and 6,121,010; cited from earlier work
ethanol intake = details: literature (Keung and Vallee); cited from earlier work
recombinant human ALDH2 = recombinant human ALDH2 (Homo sapiens (Human), UniProt P05091); assay: ALDH2 assay (NADH formation); assay type: biochemical; details: 10 nM recombinant human ALDH2, 150 uM formaldehyde, 60 min pre-incubation; read-out: IC50 hALDH2
Protocol: Standard ALDH2 reaction mixtures contained 150 uM formaldehyde, 2.5 mM NAD^+, 10 mM MgCl2 and 10 nM recombinant human ALDH2 in 50 mM Hepes buffer, pH 7.4, 0.01% Tween 20 in a final volume of 50 ul using 384-well plates. After 60 min of pre-incubation of compound with ALDH2 and formaldehyde, the reaction was started by adding NAD+ and the reaction mixture was allowed to proceed for 90 minutes. Activity of the enzyme was determined by monitoring NADH formation using Perkin-Elmer Envision Reader with excitation and emission wavelengths set at 340 and 460 nm, respectively.
(§1) Note: IC50 refers to the concentration of a compound that inhibits a reaction by 50%. In the case of competitive inhibition, IC50=2Ki when the substrate is present at the Km concentration, as per the relationship: Ki=IC50/[1+(substrate concentration/Km)].

hMAO-A = hMAO-A (Homo sapiens (Human), UniProt P21397); assay: MAO-A assay (luminogenic MAO substrate); assay type: biochemical; details: microsome contained MAO-A, 160 uM substrate, 20 min pre-incubation; unit inferred
Protocol: (§2) MAO assays included luminogenic MAO substrate, reaction buffers, Luciferin Detection and the reconstitution buffer with esterase. Standard MAO reaction mixtures included microsome contained MAO-A (2 ug) or MAO-B (10 ug), 160 uM substrate for MAO-A or 16 uM substrate for MAO-B, MAO-A buffer (100 mM Hepes buffer, pH 7.5, 5% glycerol) or MAO-B buffer (100 mM Hepes, pH 7.5, 5% glycerol, 10% dimethyl sulfoxide) in a final volume of 30 ul. After 20 minutes of pre-incubation of the enzyme with compounds, the reaction was initiated by adding enzyme substrate and the reaction was allowed to proceed for 60 minutes. Reconstituted Luciferin Detection Reagent (30 ul) was then added is added to simultaneously stop the MAO reaction and convert the methyl ester derivative to luciferin and produce light. The amount of light produced is directly proportional to the activity of MAO. The mixtures were further incubated for 20 minutes and activity of the enzyme was determined using Perkin-Elmer Envision Reader.
as §1

hMAO-B = hMAO-B (Homo sapiens (Human), UniProt P27338); assay: MAO-B assay (luminogenic MAO substrate); assay type: biochemical; details: microsome contained MAO-B, 16 uM substrate, 20 min pre-incubation; unit inferred
Protocol: as §2, §1

[2] = tested on: cocaine dependency and relapse; assay: Operant cocaine self administration and reinstatement model in rats; details: p.o.

hMAO-B, sequence (P27338 whole entry): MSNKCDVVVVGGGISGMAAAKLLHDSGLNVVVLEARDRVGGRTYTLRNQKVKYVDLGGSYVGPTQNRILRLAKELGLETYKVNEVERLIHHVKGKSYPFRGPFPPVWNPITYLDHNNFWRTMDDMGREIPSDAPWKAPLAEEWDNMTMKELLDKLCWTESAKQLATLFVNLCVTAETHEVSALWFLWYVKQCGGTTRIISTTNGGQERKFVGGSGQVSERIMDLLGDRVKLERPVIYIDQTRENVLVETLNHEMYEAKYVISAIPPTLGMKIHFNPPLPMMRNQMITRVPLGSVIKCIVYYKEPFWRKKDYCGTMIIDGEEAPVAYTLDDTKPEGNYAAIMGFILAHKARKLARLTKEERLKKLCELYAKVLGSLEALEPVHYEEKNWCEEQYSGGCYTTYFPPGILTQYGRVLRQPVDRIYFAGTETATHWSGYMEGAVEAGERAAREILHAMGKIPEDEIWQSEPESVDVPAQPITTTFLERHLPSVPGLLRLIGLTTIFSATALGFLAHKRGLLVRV
recombinant human ALDH2, sequence (P05091 18-517): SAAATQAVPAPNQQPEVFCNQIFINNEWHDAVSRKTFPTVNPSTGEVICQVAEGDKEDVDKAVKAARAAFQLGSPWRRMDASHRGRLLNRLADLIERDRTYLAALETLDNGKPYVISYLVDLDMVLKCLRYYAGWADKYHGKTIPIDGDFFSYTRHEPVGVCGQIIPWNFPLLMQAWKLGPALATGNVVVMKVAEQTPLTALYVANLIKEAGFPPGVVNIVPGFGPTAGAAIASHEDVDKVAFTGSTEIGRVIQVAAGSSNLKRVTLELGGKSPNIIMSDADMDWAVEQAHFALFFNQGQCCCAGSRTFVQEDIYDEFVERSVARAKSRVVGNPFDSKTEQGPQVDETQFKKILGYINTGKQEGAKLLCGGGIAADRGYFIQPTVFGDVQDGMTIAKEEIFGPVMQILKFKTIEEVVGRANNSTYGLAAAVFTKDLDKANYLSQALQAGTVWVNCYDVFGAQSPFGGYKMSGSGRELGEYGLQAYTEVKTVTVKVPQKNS
hMAO-A, sequence (P21397 whole entry): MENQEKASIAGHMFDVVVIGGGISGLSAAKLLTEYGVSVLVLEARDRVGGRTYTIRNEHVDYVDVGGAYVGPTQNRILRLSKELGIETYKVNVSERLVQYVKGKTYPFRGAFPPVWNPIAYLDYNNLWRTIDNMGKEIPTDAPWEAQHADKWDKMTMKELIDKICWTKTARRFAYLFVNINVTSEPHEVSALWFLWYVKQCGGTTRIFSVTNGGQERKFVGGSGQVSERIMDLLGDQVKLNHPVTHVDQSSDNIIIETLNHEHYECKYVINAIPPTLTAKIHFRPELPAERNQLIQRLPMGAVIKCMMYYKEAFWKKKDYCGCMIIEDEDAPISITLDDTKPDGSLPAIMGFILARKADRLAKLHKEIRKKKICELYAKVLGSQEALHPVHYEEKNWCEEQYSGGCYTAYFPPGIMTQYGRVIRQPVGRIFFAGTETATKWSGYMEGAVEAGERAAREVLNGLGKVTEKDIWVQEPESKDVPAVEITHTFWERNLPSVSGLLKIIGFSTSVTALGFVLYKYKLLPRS
human mitochondrial aldehyde dehydrogenase (ALDH-2), sequence (P05091 18-517): as the sequence (P05091 18-517) above

| SMILES | pIC50 (recombinant human ALDH2) | pIC50 (hMAO-A) | pIC50 (hMAO-B) | inhibition of ALDH-2 [1] | suppressing ethanol intake (ethanol intake) | reduced cocaine dependency, as reduction in the average presses of the active lever ([2]; 2.5 mg/Kg, 2 hour pre-treatment) | reduced cocaine dependency, as reduction in the average presses of the active lever ([2]; 5.0 mg/Kg, 2 hour pre-treatment) | reduced cocaine dependency, as reduction in the average presses of the active lever ([2]; 10.0 mg/kg, 1 hour pre-treatment) |
| --- | --- | --- | --- | --- | --- | --- | --- | --- |
| O=c1c(-c2ccc(O)cc2)coc2cc(O[C@@H]3O[C@H](CO)[C@@H](O)[C@H](O)[C@H]3O)ccc12 [Daidzin, daidzin] |  |  |  | potent and selective inhibitors |  |  |  |  |
| O=c1c(-c2ccc(O)cc2)coc2cc(O)ccc12 [daidzein] |  |  |  |  | effective in suppressing ethanol intake; also recorded: effective in suppressing ethanol uptake |  |  |  |
| Cn1cnc(C#Cc2ccc3c(=O)c(-c4ccc(NS(C)(=O)=O)cc4)coc3c2)c1 [N-(4-(7-((1-methyl-1H-imidazol-4-yl)ethynyl)-4-oxo-4H-chromen-3-yl)phenyl)methanesulfonamide] | 7.02 | < 4.06 | < 3.89 |  |  |  |  |  |
| CC(C)(C)OC(=O)N1CCC(C#Cc2ccc3c(=O)c(-c4ccc(NS(C)(=O)=O)cc4)coc3c2)CC1 [tert-butyl 4-((3-(4-(methylsulfonamido)phenyl)-4-oxo-4H-chromen-7-yl)ethynyl)piperidine-1-carboxylate] | 7.07 | < 3.89 | < 3.89 |  |  |  |  |  |
| CS(=O)(=O)Nc1ccc(-c2coc3cc(C#CC4CCOCC4)ccc3c2=O)cc1 [N-(4-(4-oxo-7-((tetrahydro-2H-pyran-4-yl)ethynyl)-4H-chromen-3-yl)phenyl)methanesulfonamide] | 7.37 | < 3.89 | < 3.89 |  |  |  |  |  |
| CS(=O)(=O)Nc1ccc(-c2coc3cc(C#Cc4cncnc4)ccc3c2=O)cc1 [N-(4-(4-oxo-7-(pyrimidin-5-ylethynyl)-4H-chromen-3-yl)phenyl)methanesulfonamide] | 7.24 | < 3.89 | 3.94 |  |  |  |  |  |
| CS(=O)(=O)Nc1ccc(-c2coc3cc(C#Cc4cc[nH]c(=O)c4)ccc3c2=O)cc1 [N-(4-(4-oxo-7-((2-oxo-1,2-dihydropyridin-4-yl)ethynyl)-4H-chromen-3-yl)phenyl)methanesulfonamide] | 8.05 | < 3.89 | < 3.89 |  |  |  |  |  |
| CS(=O)(=O)Nc1ccc(-c2coc3cc(C#CC4(N)CCCCC4)ccc3c2=O)cc1 [N-(4-(7-((1-aminocyclohexyl)ethynyl)-4-oxo-4H-chromen-3-yl)phenyl)methanesulfonamide] | 6.28 | < 3.89 | < 3.89 |  |  |  |  |  |
| CC(C)(C)OC(=O)NC1(C(=O)N2CC(C#Cc3ccc4c(=O)c(-c5ccc(NS(C)(=O)=O)cc5)coc4c3)C2)CC1 [tert-butyl 1-(3-((3-(4-(methylsulfonamido)phenyl)-4-oxo-4H-chromen-7-yl)ethynyl)azetidine-1-carbonyl)cyclopropylcarbamate] | 8.30 | 3.96 | < 3.89 |  |  |  |  |  |

Now from value to compound, other results behind:

| pIC50 (recombinant human ALDH2) | pIC50 (hMAO-A) | pIC50 (hMAO-B) | SMILES | inhibition of ALDH-2 [1] | suppressing ethanol intake (ethanol intake) | reduced cocaine dependency, as reduction in the average presses of the active lever ([2]; 2.5 mg/Kg, 2 hour pre-treatment) | reduced cocaine dependency, as reduction in the average presses of the active lever ([2]; 5.0 mg/Kg, 2 hour pre-treatment) | reduced cocaine dependency, as reduction in the average presses of the active lever ([2]; 10.0 mg/kg, 1 hour pre-treatment) |
| --- | --- | --- | --- | --- | --- | --- | --- | --- |
| 8.30 | < 3.89 | < 3.89 | CS(=O)(=O)Nc1ccc(-c2coc3cc(C#CC4CN(C(=O)C5CC5)C4)ccc3c2=O)cc1 [N-(4-(7-((1-(cyclopropanecarbonyl)azetidin-3-yl)ethynyl)-4-oxo-4H-chromen-3-yl)phenyl)methanesulfonamide] |  |  | 70% | 60% | 87% |
| 7.24 | < 4.89 | < 4.89 | CS(=O)(=O)Nc1ccc(-c2coc3cc(C#CC4CC4)ccc3c2=O)cc1 [N-(4-(7-(cyclopropylethynyl)-4-oxo-4H-chromen-3-yl)phenyl)methanesulfonamide] |  |  |  |  |  |
| 8.05 | < 3.89 | < 3.89 | CS(=O)(=O)Nc1ccc(-c2coc3cc(C#CC4CN(C(=O)OC5CCCC5)C4)ccc3c2=O)cc1 [cyclopentyl-3-((3-(4-(methylsulfonamido)phenyl)-4-oxo-4H-chromen-7-yl)ethynyl)azetidine-1-carboxylate] |  |  |  |  |  |
| 8.40 | < 3.89 | < 3.89 | CS(=O)(=O)Nc1ccc(-c2coc3cc(C#CC4CN(C(=O)C5CCC5)C4)ccc3c2=O)cc1 [N-(4-(7-((1-(cyclobutanecarbonyl)azetidin-3-yl)ethynyl)-4-oxo-4H-chromen-3-yl)phenyl)methanesulfonamide] |  |  |  |  |  |
| 7.19 | 4.33 | < 3.89 | CN(C)CCC(=O)N1CC(C#Cc2ccc3c(=O)c(-c4ccc(NS(C)(=O)=O)cc4)coc3c2)C1 [N-(4-(7-((1-(3-(dimethylamino)propanoyl)azetidin-3-yl)ethynyl)-4-oxo-4H-chromen-3-yl)phenyl)methanesulfonamide] |  |  |  |  |  |
| 8.05 | < 3.89 | < 3.89 | CC(C)(C)OC(=O)N1CC(C#Cc2ccc3c(=O)c(-c4ccc(NS(C)(=O)=O)cc4)coc3c2)C1 [tert-butyl 3-((3-(4-(methylsulfonamido)phenyl)-4-oxo-4H-chromen-7-yl)ethynyl)azetidine-1-carboxylate] |  |  |  |  |  |
